# Assay results taken from US20250387392A1, “PYRIDAZINONE COMPOSITIONS FOR THE TREATMENT OF NEUROMUSCULAR CONDITIONS” (Edgewise Therapeutics, Inc., priority 2022, published 2025).
# Tests used:
# [1] = system: fast skeletal muscle troponin I (TNNI2); test: Muscle damage biomarker fast skeletal muscle troponin I in adults with BMD (ELISA / SOMAscan); type: in vivo, human
# Procedure: (§1) FIGS. 2 to 8 depict positive 4-month interim results from the ongoing open label, single-center study assessing the safety, tolerability, and impact on muscle damage biomarkers, and pharmacokinetics (PK) of Compound 1 in adults with BMD. Twelve adults with BMD enrolled in the ARCH study, were dose escalated to daily 15 mg oral doses of Compound 1 at night after having initially received a 10 mg dose during the first 2 months of the study. […] All eligible patients have subsequently been dose escalated to 20 mg daily as per protocol.
# (§2) Treatment with Compound 1 led to a significant decrease in key biomarkers of muscle damage when assessed by laboratory assays. Importantly, CK and fast skeletal muscle troponin I were reduced by an average of 29% and 73%, respectively, after 4 months (FIG. 5).
# (§3) Several biomarkers of muscle damage were tested to evaluate the efficacy of Compound 1 with different dosing regimens.
# (§4) Changes in muscle injury biomarkers such as creatine kinase (CK) or fast skeletal muscle troponin I (TNNI2) were assessed in clinical trial participants. The abundance of the biomarkers were measured by plasma proteomics (SOMAscan) in short- (1-2 months), mid- (3-4 months), or long-term (6-12 months) treatment. FIG. 14A illustrates the design of this study. 12 BMD participants, 7 of whom participated in the Phase I MAD study (Example 2), were enrolled and initially treated with 10 mg of Compound 1 daily, with dose-escalation from 10 mg to 20 mg daily as shown. Blood draws were taken at pre-dose baseline, then at regular intervals thereafter for analysis by SOMAscan, as well as quantification of CK activity or TNNI2 concentration by an activity assay or ELISA. SOMAscan is a multistep modified aptamer-based assay for highOthroughpu, sensitive, and unbiased biomarker measurement. Proteins in the samples were selectively bound with fluorescent aptamers, which were then measured on a chip array to yield values proportion to absolute concentrations.
# (§5) In this study, SOMAscan was correlated to CK and TNNI2 to allow for direct conversion to absolute concentrations as well as used to identify large-scale proteomic differences between short- and long-term treatment with Compound 1. FIG. 14B illustrates validation of CK and TNNI2, where a strong correlation between SOMAscan and absolute measurements of CK (left) and TNNI2 (right) was observed. FIG. 14C illustrates SOMAscan-quantified CK and TNNI2 in blood. […] Indicated significance was for all values at that treatment point relative to pre-dose baseline. FIG. 14D and FIG. 14E illustrate the effect of Compound 1 on muscle injury proteins. SOMAscan was used to analyze the effects of treatment on a set of proteins identified to correlate with bona-fide contraction-induced skeletal muscle injury (FIG. 14D).
# adults with BMD [2] = test: Safety and tolerability in adults with BMD (ARCH open label study); type: in vivo, human
# Procedure: as §1
# (§6) FIGS. 10 to 13 depict promising 12-month results from the ongoing open label, single-center study assessing the safety, tolerability, and impact on muscle damage biomarkers, and pharmacokinetics (PK) of Compound 1 in adults with BMD. The different dosing regimens depicted in FIGS. 10A-10C, FIG. 111B, and FIGS. 12A-12F were carried out in three cohorts. One cohort has been dosed with 20 mg of Compound 1 for 12 months. A second cohort has been dosed with 15 mg of Compound 1 for 6 months. A third cohort has been dosed with 10 mg of Compound 1 for 2 months. […] Therefore, no treatment plans were discontinued due to AEs.
# [3] = system: proinflammatory cytokines and chemokines, anti-inflammatory interleukins; test: SOMAscan plasma proteomics, inflammatory proteins, BMD participants; type: in vivo, human
# Procedure: as §4
# FIG. 14G and FIG. 14H illustrate favorable shift in inflammatory biomarkers with long-term treatment. […] The observed protein concentration changes after 6-12 months were consistent across study participants (FIG. 14H).
# adults with BMD [4] = test: North Star Ambulatory Assessment (NSAA) in adults with BMD; type: in vivo, human; settings: for NSAA outcome: 20 mg group
# Description: After 4 months of Compound 1 dosing, NSAA increased by an average of 1.17 points compared to pre-therapy baseline. […] The NSAA improvements observed after only 4 months of Compound 1 dosing differ from trajectories observed in the natural history study reported by Bello et al. (2016), one of the most comprehensively characterized BMD cohorts, in which the yearly decline was 1.22 NSAA points.
# NSAA scores were also quantified based on FIGS. 9A-9C. Compound 1 stabilized NSAA scores by rescuing the natural history trend by about 1.6 points, and led to a trend towards an improvement in the scores. […] In comparison, the expected natural history decline in untreated patients is around −1.2 to −1.3 points.
# Therefore, a lower exposure of Compound 1 (e.g., 10 mg) may have a more desired functional benefit.
# muscle injury proteins = test: SOMAscan plasma proteomics, muscle injury proteins, BMD participants; type: in vivo, human
# Procedure: as §4
# In this study, SOMAscan was correlated to CK and TNNI2 to allow for direct conversion to absolute concentrations as well as used to identify large-scale proteomic differences between short- and long-term treatment with Compound 1. […] FIG. 14C illustrates SOMAscan-quantified CK and TNNI2 in blood. […]
# [5] = Muscle versus plasma concentration, muscle biopsy data from Phase 1 multiple ascending dose (MAD) study; type: in vivo, human
# Procedure: (§7) In parallel, the plasma concentrations of Compound 1 were also monitored across different dosing regimens. For group with higher dosage (e.g., the 20 mg group), there were patients with high exposures or low exposures. It was unexpected that the patients with high exposures reached to a range of plasma concentration after dosing with 20 mg/day, which was more than 4-fold higher than the target exposures predicted from preclinical models. It is also worth noting that Compound 1 was enriched in muscle. The target muscle concentration of Compound 1 from patients with lower plasma concentration were 1,000-4000 ng/g from preclinical experiments. Using muscle biopsy data from a Phase 1 multiple ascending dose (MAD) study, this equates to approximately 15-70 ng/ml in BMD. In other words, Compound 1 was enriched by about 60 fold in muscle compared to plasma.
# myoglobin = test: Muscle damage biomarker myoglobin in adults with BMD; type: in vivo, human
# Procedure: as §6, §3
# adults with BMD [6] = test: Self-reported pain score in adults with BMD; type: in vivo, human
# Description: FIG. 8 depicts a decrease in the self-reported pain score in BMD patients at two and four months following the initial administration of Compound 1.
# BMD individuals usually report more diffuse pain on spine and calves, See Jacques M F et al., Plos ONE (2019). Self-reported pain evaluation was collected and quantified in FIG. 13. […] Therefore, Compound 1 has shown to reduce pain associated with BMD.
# [7] = Plasma PK of Compound 1 in adults with BMD (ARCH open label study); type: in vivo, human; design: Mean AUC for the Compound 1 Plasma PK levels: unit not given here; settings: for Mean AUC for the Compound 1 Plasma PK levels: BMD patients
# Procedure: FIG. 4 depicts plasma levels of Compound 1 and step count of BMD patients after four months of dosing.
# as §1, §6, §7
# creatine kinase (CK) = test: Muscle damage biomarker creatine kinase in adults with BMD (activity assay / SOMAscan); type: in vivo, human
# Procedure: as §1, §2, §3, §4, §5
# [8] = Preclinical experiments, target muscle concentration; type: in vivo; settings: from preclinical experiments
# Procedure: as §7
# adults with BMD [9] = test: Functional tests (velocity, muscle strength) in adults with BMD; type: in vivo, human
# Description: FIG. 7 depicts increases in functional measures such; walk/run velocity, stair climb velocity, and grip strength in BMD patients at two and four months following the initial administration of Compound 1 in comparison to baseline measurements.
# FIGS. 12A-12F depict the functional evaluation after the treatment of Compound 1. FIG. 12A depicts the average 10 m velocity in different dosing regimens. All p-values NS with a 7% decrease at 12 months. Last observation carried forward (all N=12, except for 2 missing values, month 4 and 8). FIG. 12B depicts the average 100 meter velocity in different dosing regimens. All p-values NS with 0% change at 12 months. Last observation carried forward (all N=12, except for 2 missing values, month 4 and 8). FIG. 12C depicts the average 4-stair climb time velocity in different dosing regimens. All p-values NS except that p value for 12 months was 0.016, which was 13% decrease at 12 months. FIG. 12D depicts the average maximum grip strength in different dosing regimens. p-values <0.05 at 4, 6, 8 month and NS at 12 months. There was a 8% decrease at 12 months. FIG. 12E depicts the average maximum knee extension strength in different dosing regimens. P-values <0.05 at 4, 8, 12 month. There was a 25% decrease at 12 months. FIG. 12F depicts the maximum elbow flexion strength in different dosing regimens. All p-values NS, and there was no change at 12 months.
# Furthermore, functional tests were carried out to evaluate the functional improvements of muscle in the participants resulted from Compound 1. […] Different parameters of muscle strength were also quantified and evaluated in FIGS. 12D-12F.
# [10] = after 4 months, laboratory assay
# [11] = short-term treatment (1-2 months), relative to pre-dose baseline
# [12] = two and four months after initial administration (FIG. 7)
compound,measurement,setting,value
O=c1ccc(-c2cnc(OCC(F)(F)F)nc2)nn1Cc1cncc(F)c1 [Compound 1],Change of TNNI2 level,[1]; 10 mg dose,near maximal decreases
same,Average reduction of fast skeletal muscle troponin I,[1]; [10],73%
same,Patients reaching fast skeletal muscle troponin I levels of unaffected adults,"[1]; after 4 months, twelve participants",four patients achieving levels observed in unaffected adults
same,Change of TNNI2 level,[1]; different dosing regimens up to 12 months (FIG. 10B),sustained decrease
same,SOMAscan-quantified circulating TNNI2,[1]; longer-term treatment timepoints,reduced to nearly healthy levels
same,SOMAscan-quantified circulating TNNI2,[1]; [11],reduced by short-term treatment
same,Most common adverse events,adults with BMD [2]; 4-month interim,"dizziness, drowsiness, and headache"
same,Tolerability,"adults with BMD [2]; 4-month interim, 10 mg for 2 months then 15 mg daily oral at night, twelve adults with BMD",well-tolerated in all participants with no discontinuations or dose reductions
same,Tolerability,"adults with BMD [2]; 12-month results, 10, 15 and 20 mg doses",well tolerated at all doses without any severe adverse events
same,Proinflammatory cytokines and chemokines (SOMAscan),[3]; after 6-12 months,very significantly reduced
same,Anti-inflammatory interleukins (SOMAscan),[3]; after long-term treatment (6-12 months),increased
same,NSAA outcome,adults with BMD [4]; participants under high exposures (negative changes in NSAA),less optimal outcomes
same,NSAA outcome,adults with BMD [4]; participants with the lower exposures,stable or the best improving NSAA scores
same,Participants with the same or better NSAA scores,adults with BMD [4]; 12-month group (FIG. 11C),about 75%
same,NSAA rescue of the natural history trend,adults with BMD [4]; 12-month results (FIG. 11A),about 1.6 points
same,Average NSAA increase compared to pre-therapy baseline,adults with BMD [4]; after 4 months of dosing,1.17 points
same,Participants with functional improvement or no decline on NSAA relative to baseline,adults with BMD [4]; after 4 months of dosing,nine of the twelve
same,Muscle injury proteins (SOMAscan),muscle injury proteins; long-term treatments (6-12 months),stable levels or further decreases
same,Muscle injury proteins (SOMAscan),"muscle injury proteins; short-term treatment (1-2 months, 10 mg)",decreased from pre-dose baseline
same,Kp,"[5]; human, muscle, read-out: Enrichment in muscle compared to plasma",~60
same,Plasma concentration equating to target muscle concentration,"[5]; in BMD, using Phase 1 MAD muscle biopsy data",15 to 70 ng/mL
same,Change of myoglobin level,myoglobin; 10 mg dose,near maximal decreases
same,Change of myoglobin level,myoglobin; different dosing regimens up to 12 months (FIG. 10C),sustained decrease
same,Self-reported pain scores,adults with BMD [6]; after 12 months of treatment (FIG. 13),positive trend
same,Self-reported pain score,adults with BMD [6]; two and four months after initial administration (FIG. 8),decrease
same,Mean AUC for the Compound 1 Plasma PK levels,[7]; 10 mg dose,"1,454"
same,Mean AUC for the Compound 1 Plasma PK levels,[7]; 15 mg dose,"2,299"
same,Mean AUC for the Compound 1 Plasma PK levels,[7]; 20 mg dose,"2,293"
same,Plasma concentration relative to target exposures predicted from preclinical models,"[7]; 20 mg/day, patients with high exposures",more than 4 fold
same,Change of creatine kinase (CK) level,creatine kinase (CK); 10 mg dose,near maximal decreases
same,Average reduction of CK,creatine kinase (CK); [10],29%
same,Change of creatine kinase (CK) level,creatine kinase (CK); different dosing regimens up to 12 months (FIG. 10A),sustained decrease
same,SOMAscan-quantified circulating CK,creatine kinase (CK); [11],reduced by short-term treatment
same,Target muscle concentration of Compound 1,[8],"1,000-4000 ng/g"
same,Deterioration in 10 m velocity,adults with BMD [9]; 12-month results (FIG. 12A),no statistically significant deterioration
same,Deterioration in 100 meter velocity,adults with BMD [9]; 12-month results (FIG. 12B),no statistically significant deterioration
same,Deterioration in 4-stair climb time velocity,adults with BMD [9]; 12-month results (FIG. 12C),no statistically significant deterioration
same,Decrease in average 4-stair climb time velocity,"adults with BMD [9]; at 12 months, p 0.016 (FIG. 12C)",13%
same,Decrease in average maximum knee extension strength,"adults with BMD [9]; at 12 months, p <0.05 (FIG. 12E)",25%
same,Decrease in average 10 m velocity,"adults with BMD [9]; at 12 months, p NS (FIG. 12A)",7%
same,Change in average 100 meter velocity,"adults with BMD [9]; at 12 months, p NS (FIG. 12B)",0%
same,Decrease in average maximum grip strength,"adults with BMD [9]; at 12 months, p NS (FIG. 12D)",8%
same,Change in maximum elbow flexion strength,"adults with BMD [9]; at 12 months, p NS (FIG. 12F)",no change
same,Muscle strength effect,adults with BMD [9]; some participants from the 20 mg group (FIGS. 12C-12F),muscle strength weakness
same,Grip strength versus baseline,adults with BMD [9]; [12],increases
same,Stair climb velocity versus baseline,adults with BMD [9]; [12],increases
same,Walk/run velocity versus baseline,adults with BMD [9]; [12],increases
